Data reported in publication PMC5411961, “One amino acid makes a difference–Characterization of a new TPMT allele and the influence of SAM on TPMT stability” (Scientific Reports, 2017).
pKd: −log10 of the molar value.

Biological target: T1, TPMTwt (Homo sapiens, UniProt P51580)
T1 construct: gene TPMT; recombinant, pET-28a, E. coli BL21(DE3) CodonPlus, His-tag cleaved off with thrombin, Ni-NTA and gel filtration
T1 sequence (P51580 1-245): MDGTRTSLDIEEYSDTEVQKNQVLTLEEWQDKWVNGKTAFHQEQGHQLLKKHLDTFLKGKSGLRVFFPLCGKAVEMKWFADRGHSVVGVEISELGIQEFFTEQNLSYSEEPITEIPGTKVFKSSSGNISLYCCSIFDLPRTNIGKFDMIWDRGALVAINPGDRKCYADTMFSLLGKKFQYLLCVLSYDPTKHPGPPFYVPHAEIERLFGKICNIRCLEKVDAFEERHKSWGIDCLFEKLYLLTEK
Assay: isothermal titration calorimetry
Type: binding

## C[S+](CC[C@H](N)C(=O)O)C[C@H]1O[C@@H](n2cnc3c(N)ncnc32)[C@H](O)[C@@H]1O (stereo partly shown) [SAM]
  pKd: 5.57
